# Measurements as given in ChEMBL document CHEMBL1151801, “Synthesis of new indeno[1,2-e]pyrimido[4,5-b][1,4]diazepine-5,11-diones as potential antitumor agents” (2008).
# Active and inactive are the calls of the source. The calls are words filed in the database; no cut-off is given here.
# Test system: NCI60
# Test: Antitumor activity against human NCI60 cells at 1 uM
# Format: functional, cell-based
row,Compound,Activity
1,COc1ccc(C2Nc3nc(OC)n(C)c(=O)c3NC3=C2C(=O)c2ccccc23)cc1 (stereo not given),inactive
2,COc1ccc(C2Nc3nc(SC)n(C)c(=O)c3NC3=C2C(=O)c2ccccc23)cc1 (stereo not given),inactive
3,COc1ccc(C2Nc3nc(SC)[nH]c(=O)c3NC3=C2C(=O)c2ccccc23)cc1 (stereo not given),inactive
4,CSc1nc2c(c(=O)n1C)NC1=C(C(=O)c3ccccc31)C(c1ccccc1)N2 (stereo not given),inactive
5,COc1nc2c(c(=O)n1C)NC1=C(C(=O)c3ccccc31)C(c1ccccc1)N2 (stereo not given),inactive
